Read-outs that look alike come from different tables or passages of the source. Values belong to the compound of their own block, whether it stands above or below them.
Assays:
[1] = biological target: T1, ENL YEATS-H3K27ac interaction (Homo sapiens, UniProt Q03111); assay: ALPHA assay, inhibition of ENL YEATS-H3K27ac interaction; conditions: read-out: IC50, inhibition of ENL YEATS-H3K27ac interaction
T1 sequence (Q03111 1-138 limits assumed): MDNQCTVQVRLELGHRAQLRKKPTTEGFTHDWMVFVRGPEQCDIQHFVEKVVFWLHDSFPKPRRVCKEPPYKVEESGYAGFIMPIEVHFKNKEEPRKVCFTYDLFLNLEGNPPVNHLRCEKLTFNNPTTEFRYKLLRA

[2] = test system: Molm-13 cells; conditions: Molm13 cells, footnote b: reported in Li, et al. J Hematol Oncol, 2022; read-out: Anti-proliferative activity EC50, Molm13; cited from earlier work
[3] = biological target: T2, ENL (Homo sapiens, UniProt Q03111); assay: ENL degradation in MV4;11 cells (Western blot); type: cell-based; conditions: for DC50: read-out: DC50 (concentration at which a protein is reduced by 50%), ENL
T2 construct: tested whether the compounds degrade ENL and AF9 in MV4;11 leukemia cells; endogenous in cells; host or cells: MV4;11; Molm-13
T2 sequence (Q03111 1-559): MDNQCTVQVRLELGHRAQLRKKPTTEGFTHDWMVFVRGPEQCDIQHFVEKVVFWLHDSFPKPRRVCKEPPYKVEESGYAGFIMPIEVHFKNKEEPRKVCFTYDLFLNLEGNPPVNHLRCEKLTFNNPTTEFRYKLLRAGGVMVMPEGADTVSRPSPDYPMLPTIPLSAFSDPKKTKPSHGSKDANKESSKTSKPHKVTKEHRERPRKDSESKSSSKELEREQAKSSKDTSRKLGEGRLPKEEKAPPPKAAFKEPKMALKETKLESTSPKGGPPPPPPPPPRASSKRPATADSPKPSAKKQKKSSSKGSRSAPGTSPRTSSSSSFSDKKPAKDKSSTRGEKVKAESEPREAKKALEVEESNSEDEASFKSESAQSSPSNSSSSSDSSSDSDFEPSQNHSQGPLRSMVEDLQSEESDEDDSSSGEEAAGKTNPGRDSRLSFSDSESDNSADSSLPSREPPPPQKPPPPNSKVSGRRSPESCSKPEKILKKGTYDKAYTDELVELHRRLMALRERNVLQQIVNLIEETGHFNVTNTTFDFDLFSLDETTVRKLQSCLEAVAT
Protocol: Next, Applicant tested whether the compounds degrade ENL and AF9 in MV4;11 leukemia cells with the .MLL1-AF4 oncogene. Upon compound treatment for 24 h, the cells were washed, lysed, and the lysates subjected to SDS-PAGE (sodium dodecyl sulphate-polyacrylamide gel electrophoresis) followed by detection with Western blot.

[4] = test system: Hela cell; conditions: Hela cells, footnote b: reported in Li, et al. J Hematol Oncol, 2022, read-out: Anti-proliferative activity EC50, Hela, cited from earlier work
[5] = test system: RPMI-8226 cells; assay: Anti-proliferative activity, RPMI-8226 cells; type: cell-based
[6] = test system: MV4;11 cells; conditions: footnote b: reported in Li, et al. J Hematol Oncol, 2022, read-out: Anti-proliferative activity EC50, MV4; cited from earlier work
[7] = test system: Hela cell; assay: Anti-proliferative activity, Hela cells; type: cell-based; conditions: Hela cells, read-out: Anti-proliferative activity EC50, Hela
[8] = test system: blood and solid tumor cells; assay: Anti-proliferative activity, panel of blood and solid tumor cells; type: cell-based
[9] = test system: Molm-13 cells; assay: Anti-proliferative activity, Molm-13 cells; type: cell-based
[10] = test system: RPMI-8226 cells; conditions: footnote b: reported in Li, et al. J Hematol Oncol, 2022, read-out: Anti-proliferative activity EC50, RPMI-8226; cited from earlier work
[11] = test system: MV4;11 cells; assay: Anti-proliferative activity, MV4;11 cells; type: cell-based
[12] = biological target: T2, ENL; assay: Nuclear and cytoplasmic ENL levels in MV4;11 cells, 4 days (Western blot); type: cell-based
Description: Upon treatment of MV4;11 cells with these compounds for 4 days, cytoplasmic and nuclear proteins were separated and subjected to SDS-PAGE/Western blot.

[13] = biological target: T2, ENL; assay: Rescue of compound 1-mediated ENL degradation in MV4;11 cells; type: cell-based; conditions: 2 h pre-treatment then co-treatment with compound 1 (500 nM) for 24 h
[14] = Molm13 cells, read-out: Anti-proliferative activity EC50, Molm13
[15] = MV4, 11 cells, read-out: Anti-proliferative activity EC50, MV4, 11

- EC50 [9, 14]: 1000 ± 200 nM
- EC50 ([7]; 3 days incubation): 2500 ± 1400 nM
- EC50 [5]: 2 ± 0.3 µM
Structure (SMILES): C[C@H]1CCCN1Cc1nc2cc(NC(=O)c3ccc4c(cnn4CCCCCCCCNC(=O)CC45CC6CC(CC(C6)C4)C5)c3)ccc2[nH]1 [SYC-2521]

- EC50 [9, 14]: 1000 ± 50 nM
- EC50 ([7]; 3 days incubation): 3200 ± 700 nM
- EC50 [5]: 0.68 ± 0.2 µM
Structure (SMILES): C[C@H]1CCCN1Cc1nc2cc(NC(=O)c3ccc4c(cnn4CCCCCCNC(=O)CC45CC6CC(CC(C6)C4)C5)c3)ccc2[nH]1 [SYC-2522]

- EC50 [9, 14]: 980 ± 40 nM
- EC50 ([5]; 3 days incubation): 1.4 ± 0.5 µM
Structure (SMILES): C[C@H]1CCCN1Cc1nc2cc(NC(=O)c3ccc4c(cnn4CCCCNC(=O)CC45CC6CC(CC(C6)C4)C5)c3)ccc2[nH]1 [SYC-2523]
- EC50 ([4]; 3 days incubation): 3.8 ± 1.2 µM

- EC50 [9, 14]: 2500 ± 1100 nM
- DC50 ([3]; 24 h treatment): 21 nM
Structure (SMILES): C[C@H]1CCCN1Cc1nc2cc(NC(=O)c3ccc4c(cnn4CCCNc4cccc5c4C(=O)N(C4CCC(=O)NC4=O)C5=O)c3)ccc2[nH]1 (stereo partly drawn) [SYC-2552]

- EC50 [9, 14]: 3400 ± 400 nM
- EC50 [11, 15]: 8.3 ± 1.6 µM
- DC50 ([3]; 24 h treatment): 4.2 nM
- EC50 [5]: 7.2 ± 0.35 µM
Structure (SMILES): C[C@H]1CCCN1Cc1nc2cc(NC(=O)c3ccc4c(cnn4CCCCCNc4cccc5c4C(=O)N(C4CCC(=O)NC4=O)C5=O)c3)ccc2[nH]1 (stereo partly drawn) [SYC-2553]

- EC50 [9, 14]: 4400 ± 500 nM
- EC50 [11, 15]: 3.7 ± 1.6 µM
- EC50 [5]: 6.4 ± 0.65 µM
Structure (SMILES): C[C@H]1CCCN1Cc1nc2cc(NC(=O)c3ccc4c(cnn4CCCCCCCNc4cccc5c4C(=O)N(C4CCC(=O)NC4=O)C5=O)c3)ccc2[nH]1 (stereo partly drawn) [SYC-2554]

- EC50 [9, 14]: 4500 ± 600 nM
- EC50 [11, 15]: 8.3 ± 0.8 µM
- ENL reduction ([3]; FIGS. 9A-9E): did not reduce ENL
- EC50 [5]: 7.9 ± 0.07 µM
Structure (SMILES): C[C@H]1CCCN1Cc1nc2cc(NC(=O)c3ccc4c(cnn4CCCCCCCCCNc4cccc5c4C(=O)N(C4CCC(=O)NC4=O)C5=O)c3)ccc2[nH]1 (stereo partly drawn) [SYC-2555]

- EC50 [9, 14]: 1100 ± 300 nM
- EC50 [11, 15]: 8.4 ± 1.2 µM
- ENL reduction ([3]; FIGS. 9A-9E): did not reduce ENL
- EC50 [5]: 7.5 ± 0.19 µM
Structure (SMILES): C[C@H]1CCCN1Cc1nc2cc(NC(=O)c3ccc4c(cnn4CCCCCCCCCCNc4cccc5c4C(=O)N(C4CCC(=O)NC4=O)C5=O)c3)ccc2[nH]1 (stereo partly drawn) [SYC-2556]

- EC50 [9, 14]: 820 ± 200 nM
- EC50 [11, 15]: 0.94 ± 0.06 µM
- ENL reduction ([3]; FIGS. 9A-9E): did not reduce ENL
- EC50 ([5]; 6 days incubation): 5.5 µM
Structure (SMILES): C[C@H]1CCCN1Cc1nc2cc(NC(=O)c3ccc4c(cnn4CCCCCCCCCCCNc4cccc5c4C(=O)N(C4CCC(=O)NC4=O)C5=O)c3)ccc2[nH]1 (stereo partly drawn) [SYC-2557]

- EC50 ([7]; 3 days incubation): 2500 ± 1000 nM
Structure (SMILES): C[C@H]1CCCN1Cc1nc2cc(NC(=O)c3ccc4c(cnn4CCCNC(=O)CC45CC6CC(CC(C6)C4)C5)c3)ccc2[nH]1 [SYC-2558]

The remaining lines, values behind:

Structure (SMILES): C[C@H]1CCCN1Cc1nc2cc(NC(=O)c3ccc4c(cnn4CCCCCCNc4cccc5c4C(=O)N(C4CCC(=O)NC4=O)C5=O)c3)ccc2[nH]1 (stereo partly drawn) [Compound 2]
- IC50 [1]: 100 nM
- EC50 [2]: 490 nM
- Dmax (maximal degradation), ENL ([3]; 24 h treatment): ~68%
- DC50 ([3]; 24 h treatment): ~50 nM
- EC50 [4]: > 50 µM
- EC50 [5]: 6 ± 0.91 µM
- EC50 [6]: 1600 nM

Structure (SMILES): C[C@H]1CCCN1Cc1nc2cc(NC(=O)c3ccc4c(cnn4CCCCNc4cccc5c4C(=O)N(C4CCC(=O)NC4=O)C5=O)c3)ccc2[nH]1 (stereo partly drawn) [Compound 3]
- IC50 [1]: 610 nM
- EC50 [2]: 2100 nM
- EC50 ([7]; footnote letter missing): > 50000 nM
- Dmax (maximal degradation), ENL ([3]; 24 h treatment): 89%
- concentration at which ENL is almost depleted ([3]; 24 h treatment): ~500 nM
- DC50 ([3]; 24 h treatment): 72 nM
- EC50 [5]: 19 ± 3.8 µM
- EC50 [6]: 1200 nM

Structure (SMILES): C[C@H]1CCCN1Cc1nc2cc(NC(=O)c3ccc4c(cnn4CCCCNC(=O)CC45CC6CC(CC(C6)C4)C5)c3)ccc2[nH]1 [Compound 4]
- time to non-selective killing of cancerous cells [8]: ≤ 3 days
- EC50 ([8]; blood and solid tumor cells, range over cell lines, read-out: EC50, proliferation): 1000 to 3800 nM
- ENL reduction ([3]; 24 h, even at 5 μM): did not reduce ENL

Structure (SMILES): C[C@H]1CCCN1Cc1nc2cc(NC(=O)c3ccc4c(cnn4C)c3)ccc2[nH]1 [SGC-iMLLT, reference compound]
- activity against proliferation ([9]; Molm-13 cells): weak activity
- EC50 [2]: 17000 nM
- EC50 [10]: > 50 µM
- EC50 [4]: > 50 µM
- EC50 [6]: > 50000 nM

Structure (SMILES): O=C1CCC(N2C(=O)c3ccccc3C2=O)C(=O)N1 (stereo not drawn) [Thalidomide, thalidomide, reference compound]
- EC50 ([9]; Homo sapiens, 168 h, Molm-13 cells, 7-day incubation, read-out: EC50, proliferation): > 50000 nM
- ENL level in the nucleus [12]: did not reduce
- effect on compound 1-mediated ENL degradation [13]: dose-dependently inhibit compound 1-mediated ENL degradation
- EC50 [2]: > 50000 nM
- EC50 [10]: > 50 µM
- EC50 ([11]; Homo sapiens, 168 h, MV4;11 cells, 7-day incubation, read-out: EC50, proliferation): > 50 µM
- EC50 [4]: > 50 µM
- EC50 [6]: > 50000 nM

Structure (SMILES): CC(C)C[C@H](NC(=O)[C@H](Cc1ccccc1)NC(=O)c1cnccn1)B(O)O [bortezomib]
- effect on compound 1-mediated ENL degradation [13]: dose-dependently inhibit compound 1-mediated ENL degradation
